In patent EP4772505A1, “COMPOUND FOR DEGRADING ANDROGEN RECEPTOR AND MEDICAL USE THEREOF” (Ubix Therapeutics, Inc., priority 2023, dated 2025):

Target: T1, Androgen Receptor (AR) (Homo sapiens, UniProt P10275, T878A)
T1 construct: endogenous in cells; host or cells: LNCaP
T1 sequence (P10275 1-920 T878A): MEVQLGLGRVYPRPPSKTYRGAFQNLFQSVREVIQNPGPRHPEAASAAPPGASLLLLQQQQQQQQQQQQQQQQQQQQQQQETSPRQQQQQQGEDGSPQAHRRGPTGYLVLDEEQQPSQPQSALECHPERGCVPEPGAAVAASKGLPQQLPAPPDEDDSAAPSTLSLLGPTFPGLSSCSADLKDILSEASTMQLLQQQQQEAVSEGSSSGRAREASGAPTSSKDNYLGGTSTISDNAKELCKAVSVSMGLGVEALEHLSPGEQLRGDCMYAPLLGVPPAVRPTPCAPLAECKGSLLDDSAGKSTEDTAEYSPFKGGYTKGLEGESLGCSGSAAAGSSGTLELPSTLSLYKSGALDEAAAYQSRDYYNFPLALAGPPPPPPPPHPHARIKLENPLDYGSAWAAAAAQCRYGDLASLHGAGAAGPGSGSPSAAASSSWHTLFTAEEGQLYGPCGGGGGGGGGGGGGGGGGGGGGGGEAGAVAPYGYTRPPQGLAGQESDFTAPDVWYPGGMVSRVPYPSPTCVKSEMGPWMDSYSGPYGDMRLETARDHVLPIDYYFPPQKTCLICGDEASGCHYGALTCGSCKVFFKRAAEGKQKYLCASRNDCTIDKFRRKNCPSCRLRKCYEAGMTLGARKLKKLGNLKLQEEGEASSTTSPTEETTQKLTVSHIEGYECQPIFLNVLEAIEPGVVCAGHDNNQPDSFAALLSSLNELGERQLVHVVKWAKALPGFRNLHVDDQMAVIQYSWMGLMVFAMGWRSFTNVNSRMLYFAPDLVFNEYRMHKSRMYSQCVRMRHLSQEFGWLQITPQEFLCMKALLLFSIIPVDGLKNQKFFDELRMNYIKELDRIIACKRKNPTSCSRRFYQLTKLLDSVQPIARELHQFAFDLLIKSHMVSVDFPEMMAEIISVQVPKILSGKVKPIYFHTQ
Experiment: Measurement of AR protein degradation in LNCaP cells by Western blotting
Format: cell-based
Details: LNCaP, 20 h, read-out: AR degradation in LNCaP cells (%)
Description: The amount of AR protein present in LNCaP or VCaP cells was measured after treating them with the synthesized compound. The amount of AR protein was measured using Western blotting. The protocol for the experiments using LNCaP or VCaP cells was as follows.
[Culture] LNCaP cells were resuspended in RPMI1640 medium + HEPES (Hyclone, SH30255.01), 10% FBS (Hyclone, SV30207.02), and 1% Penicillin-streptomycin (Welgene, LS 202-02). 3 x 10^5 cells/mL were seeded in 12-well plates (1 mL per well) and cultured for 3 days. VCaP cells were resuspended in IMDM MEDIUM (Hyclone, SH30228.01), 20% FBS (Hyclone, SV30207.02), and 1% Penicillin-streptomycin (Welgene, LS 202-02), seeded at 9 x 10^5/mL in 1 mL per 12-well plate, and cultured for 3 days.
[Compound Treatment] 10 µL of 100x stock (e.g., 0.1, 1, 10 µM) compound solution at the final compound treatment concentration (e.g., 0.001, 0.01, 0.1 µM) was added to each well in 1 mL media, and cells were harvested after 20 hours. For DC50 measurement, 100x stock (0.01, 0.1, 1, 10, 100, 1000 µM) compound solutions at the final compound treatment concentration (0.0001, 0.001, 0.01, 0.1, 1, 10 µM) were used.
[Cell lysis] The cell pellet was suspended using 1% SDS lysis buffer (50 mM Tris, 1 mM EDTA, 1% SDS, pH 8.0, 0.5 mM PMSF, 1x Protease/Phosphatase inhibitor Cocktail (Cell Signaling Technology, 5872S)), and sonication (70% AMP, 10 cycles (30 sec ON/59 sec OFF)) was performed. After centrifugation at 4°C and 20,000 g for 20 minutes, the cell lysate was obtained and transferred to a new tube.
[Protein Quantification] A BCA protein assay (SMART™ BCA Protein Assay Kit, iNtRON Biotechnology, 21071) was performed using a 96-well microplate. 5 µL of cell lysate and 5 µL of 1% SDS lysis buffer were added to each well of the 96-well plate, followed by an additional 200 µL of BCA reagent (Reagent A: Reagent B = 50:1). The wells were incubated at 37°C for 30 minutes and cooled to room temperature for 10 minutes. After shaking for 10 seconds, the absorbance was measured at a wavelength of 562 nm. The unknown protein concentration was determined using a BSA standard curve (0, 0.125, 0.25, 0.5, 1, 2 mg/mL). Western blotting samples were prepared by mixing cell lysate, 1% SDS lysis buffer, 4x NuPAGE™ LDS Sample buffer (Invitrogen, NP0008), and 10X NuPAGE™ Sample Reducing Agent (Invitrogen, NP0009) and boiling at 70°C for 10 minutes.
[Electrophoresis] 10 µg of protein sample was loaded into each well of a NuPAGE™ 4 to 12%, Bis-Tris, 1.0 mm Mini Protein Gel, 15-well, 17-well, or 26-well (Invitrogen, NP0323BOX, NP0329BOX, or WG1403BOX) and electrophoresed for 40 minutes using NuPAGE™MES SDS Running Buffer (Invitrogen, NP0002) at 200 V (constant V).
[Transfer] Transfer was performed for 15 or 18 minutes using the electrophoresed gel and the Trans-Blot® Turbo™ Transfer Starter System (Bio-RAD, #17001918, Mini Nitrocellulose) at 1.3 A (constant A) and 25 V (limit V). To confirm protein transfer, 15 mL of Ponceau S solution (Sigma, P7170-1L) was used to stain for 1 minute, and then washed to check the degree of transfer.
[Blocking] The membrane for AR and GAPDH detection was blocked with 5% skim milk/0.2% TBST (Skim milk: BD, 232100/ 20X TBS: Biosesang, TR2008-100-00/ 10% Tween 20 Solution: Bio-RAD, #161-0781) for 45 minutes.
[Antibodies and Detection] Primary AR antibody (Androgen Receptor: CST, 5153S) was mixed with 5% skim milk/0.2% TBST at a ratio of 1:1,000 and reacted at room temperature for 3 hours or at 4°C overnight. Primary GAPDH antibody (CST, 2118S) was mixed with 5% skim milk/0.2% TBST at a ratio of 1:2,000 and reacted at room temperature for 3 hours or at 4°C overnight. Afterwards, TBST (0.2% Tween 20) was used for washing three times every 5 minutes. Secondary antibody to AR antibody, Anti-rabbit IgG, HRP-linked Antibody (CST, 7074S), was mixed with 5% skim milk/0.2% TBST at a ratio of 1:5,000 and reacted at room temperature for 45 minutes. […]

N#Cc1ccc(N2CCC(C(=O)Nc3ccc(OC4CCN(CC5CCN(c6ccc(NC7CCC(=O)NC7=O)cc6Cl)CC5)CC4)cn3)CC2)cc1C(F)(F)F (centres unmarked) [Example 17, N-(5-((1-((1-(2-chloro-4-((2,6-dioxopiperidin-3-yl)amino)phenyl)piperidin-4-yl)methyl)piperidin-4-yl)oxy)pyridin-2-yl)-1-(4-cyano-3-(trifluoromethyl)phenyl)piperidine-4-carboxamide]
Dmax at 0.01 µM: 77%
Dmax at 0.1 µM: 99%
